From US20230310504A1, “PLATELET MEMBRANE COATED NANOPARTICLES AND USES THEREOF” (CELLO THERAPEUTICS, INC., priority 2020, published 2023)

Assays:
[1] = system: MC38 murine colon adenocarcinoma; test: Therapeutic efficacy in combination with doxorubicin in MC38 model; assay type: in vivo, C57BL/6 mice
Protocol: Therapeutic efficacy of PNP-R848 in combination with chemotherapy was also assessed (FIG. 8). […] Despite some promising initial results, all mice treated with doxorubicin, both with or without PNP-R848, succumbed after re-challenge with a 3-fold higher dose of cancer cells.
Therapeutic efficacy in combination with doxorubicin. Mice were implanted with 1 × 10^6 MC38 cells subcutaneously into the right flank, which were allowed to grow to an average size of ~30-40 mm^3. The mice received intratumoral treatments every other day for a total of 3 times. The treatment groups included: 8% sucrose (n = 6), free doxorubicin (n = 6), and doxorubicin + PNP-R848 (n = 6). Mice received 63 µg of doxorubicin and 15 µg of R848 per dose. For the combination treatment, doxorubicin and PNP-R848 were mixed pre-administration and the animal received one intratumoral injection containing both. Tumor growth and mouse weight were monitored every other day. Progression-free survival was defined as tumor volume < 200 mm^3. All the mice that rejected the initial MC38 inoculum were re-challenged subcutaneously using 3 × 10^6 MC38 cells on day 56 after the start of the first treatment. Five naive C57BL/6 mice that received the same MC38 tumor cell challenge were used as controls to verify tumorigenicity.

[2] = system: MC38 murine colon adenocarcinoma; test: Therapeutic efficacy in a murine MC38 tumor model (15 µg and reduced 6 µg R848 dosage); assay type: in vivo, C57BL/6 mice; conditions: for long-term survival rate: intratumoral, every other day x3
Protocol: The antitumor efficacy of PNP-R848 was evaluated using an MC38 murine colon adenocarcinoma model in immunocompetent C57BL/6 mice (FIG. 4a). Each animal received a subcutaneous injection of 1 × 10^6 MC38 cells in the right flank, and the average tumor size was allowed to reach ~30-40 mm^3. At this point, the mice started receiving one of the following treatments: 8% sucrose as a negative control, free R848, PEG-NP loaded with R848 (PEG-NP-R848), or PNP-R848, each at a drug dosage of 15 µg per injection. Treatments were administered intratumorally every other day for a total of 3 times, after which the mice were monitored regularly to assess therapeutic efficacy (FIGS. 4b-e). […] Tumor growth was considerably delayed when treating with either free R848 or PEG-NP-R848, but there was significant disease progression in a majority of the mice by approximately 30 days after the start of treatment. […] Treatment efficacy was also evaluated when reducing the drug dosage by 2.5-fold to 6 µg of R848 per injection (FIG. 6).
In order to determine if the surviving animals had developed long-term immunity against MC38 cancer cells, the mice were re-challenged with a 3-fold higher inoculum subcutaneously into the right flank 56 days after initiation of the first treatment (FIGS. 4c,d). For the survivors that had been treated with either dose of PNP-R848, the second tumor challenge was rejected at a 100% rate. […] The remainder of the surviving animals in the other groups all rejected the re-challenge, with no tumor progression observed at least 100 days after the start of the initial treatment.
Therapeutic efficacy in a murine MC38 tumor model. Mice were implanted with 1 × 10^6 MC38 cells subcutaneously into the right flank, which were allowed to grow to an average size of ~30-40 mm^3. The mice were then intratumorally treated every other day for a total of 3 times. […] Tumor growth and mouse weight were monitored every other day. […]
Therapeutic efficacy in a murine MC38 tumor model at a reduced R848 dosage. […] Tumor growth and mouse weight were monitored every other day. […]

Structure (SMILES) | survival ([1]; 63 µg doxorubicin intratumoral x3) | outcome after re-challenge ([1]; 3-fold higher dose of cancer cells, day 56) | long-term survival rate ([2]; 6 µg R848 per injection) [%] | long-term survival rate ([2]; 15 µg R848 per injection) [%] | overall survival after the tumor re-challenge ([2]; 6-µg dosage, 3-fold higher inoculum, day 56) [%]
COc1cccc2c1C(=O)c1c(O)c3c(c(O)c1C2=O)C[C@@](O)(C(=O)CO)C[C@@H]3O[C@H]1C[C@H](N)[C@H](O)[C@H](C)O1 [doxorubicin] | prolonged survival, the improvement was modest | succumbed |  |  | 
CCOCc1nc2c(N)nc3ccccc3c2n1CC(C)(C)O [free R848, Resiquimod] |  |  | 62.5 | 28.6 | 37.5
